Tests used:
[1] = test system: IL-1β-stimulated PGE2 synthesis, bovine chondrocyte pellets / ARC tissues; assay: chondrocyte pellet culture model: PGE2; format: cell-based; details: for PGE2 Inhibition: Pellet Assay
Excerpt: (§1) Calf articular cartilage was obtained from the knee joints of eight to twelve month old animals and was processed within twenty-four hours after sacrifice. After removal of muscle and ligament, the cartilage was kept moist using phosphate buffer solution (PBS) to prevent tissue dehydration, and was aseptically peeled off from subchondral bone with a scalpel, and the cartilage pieces were further minced into smaller pieces (˜0.3-0.5×˜0.2-0.5 cm cubes). […] Chondrocytes were then enzymatically isolated from the tissue by incubation for overnight at 37° C. with gentle agitation in 0.2% collagenase in Dulbecco's modified eagle media (DMEM). After removal of tissue debris by filtration through cell strainer and the residual collagenase by 3× wash in PBS, cells were finally resuspended at a density of 2.5×10^6 cells/ml in chondrocyte medium. A 1 ml aliquot of the cell suspension was dispensed into either a 15 ml Falcon centrifuge tube or a 96 deep-well plate and centrifuged at 2000×g for five minutes. The chondrocyte pellets were incubated at 37° C. in a humidified atmosphere of 5% CO2 for two to three weeks with a medium change every other day.
(§2) As an alternative to using calf articular cartilage, a commercial Alginate Recovered Chondrocytes (ARC) system was also used (Articular Engineering, LLC (Northbrook, Ill.)). Use of the commercial system cut down on labor and time in producing chondrocyte pellet. This system produced cartilaginous tissue in vitro using bovine chondrocytes. The first step consisted of culturing chondrocytes in alginate under conditions optimal for the formation of a cell-associated matrix (CM). The second step allowed these cells with their CM, after recovery, to rapidly form and become integrated into a solid mass of cartilage on a porous insert within two weeks. This tissue is rich in cells surrounded by a cell-associated matrix that is degraded rapidly when the cells are exposed to IL-1. ARC tissues in 3 mm punches at delivery were first dispensed into a 96 deep-well plate, one punch per well, for compound treatment. The subsequent procedures were the same as those used for the chondrocyte pellets.
(§3) Chondrocyte pellets were washed once with 1 ml of Chondrocyte Stimulation Medium and equilibrated in the same medium at room temperature for fifteen to thirty minutes. Compounds were dissolved in H2O, Ethanol or dimethyl sulfoxide (DMSO) (10^−2 M) according to suppliers' instructions and further diluted with Chondrocyte Stimulation Medium to the required concentrations. DMSO concentrations in the culture media should not exceed 1%; this concentration of DMSO has no effect on cartilage proteoglycan metabolism in response to cytokines.
(§4) The pellets were first treated with compounds at desired concentrations at 37° C. for one hour and then incubated for three to five days in the absence or presence of 10 ng/ml of IL-1β. At the end of the incubation, media and pellets were harvested and frozen for further analysis. Pellets were also fixed as needed in 4% (w/v) paraformaldehyde in PBS for histology analysis.
Prostaglandin E2 (PGE2) was measured with a STAT-Prostaglandin E2 EIA ELISA kit (Cayman Biochemicals). This assay is based on the competition between PGE2 from 50 μl samples and a PGE2-alkaline phosphatase conjugate for a limited amount of PGE2 monoclonal antibody in a reaction volume of 150 μl at room temperature for one hour. The antibody-PGE2 complex bound to a goat polyclonal anti-mouse IgG that had been previously attached to the well. After washing to remove any unbound reagents, para-nitrophenyl phosphate (pNPP) was added to the well. The product of this enzymatic reaction absorbs strongly at 412 nm. Because of the large range in response to IL-1β and other cytokines, PGE2 values were converted to log scale prior to doing t-tests.

[2] = test system: IL-1β-stimulated NO production, bovine chondrocyte pellets / ARC tissues; assay: chondrocyte pellet culture model: total nitrite/nitrate (NO); format: cell-based; details: Pellet Assay
Excerpt: as §1, §2, §3, §4
Nitrate/Nitrite levels were measured using the Griess reaction (Green L. C. et al., “Analysis of Nitrate, Nitrite, and [15N]nitrate in Biological Fluids,” Anal. Biochem. 126: 131-138 (1982)) with aNitrate/Nitrite Colorimetric Assay Kit (Cayman Chemicals), the contents of which are incorporated herein by reference. The assay involved a simple two-step process. The first step involved conversion of nitrate in 50 μl of culture medium to nitrite utilizing nitrate reductase in a reaction volume of 100 μl at room temperature for two hours. The second step involved the addition of 50 μl of both Griess Reagent 1 and 2, which converted nitrite into a deep purple azo compound in ten minutes. Photometric measurement of the absorbance at 540 or 550 nm due to this azo chromophore accurately determined nitrite concentration. […]

[3] = test system: IL-1β-stimulated GAG release, bovine chondrocyte pellets / ARC tissues; assay: chondrocyte pellet culture model: GAG degradation; format: cell-based; details: for GAG Release: Pellet Assay
Excerpt: as §1, §2, §3
[…] At the end of the incubation, media and pellets were harvested and frozen for further analysis. Pellets were also fixed as needed in 4% (w/v) paraformaldehyde in PBS for histology analysis.
Glycosaminoglycan (GAG) levels in the culture media were determined by measuring the amount of polyanionic material reacting with 1,9-dimethylmethylene blue (DME) as detected by absorbance at 525 nm, using shark chondroitin sulfate as a standard. The DME blue dye-binding solution was prepared by dissolving 16 mg of DME blue in a solution containing 0.304% glycine, 0.23% sodium chloride (NaCl), 9.5 mM hydrochloric acid (HCl), pH=3.0 with absorbance at 525 equal to 0.31. Proteoglycans and proteoglycan metabolites in chondrocyte pellet were released by digesting the pellet with 125 μg/ml of papain in 0.1 M PBS, pH 6.0, 5 mM cysteine, 5 mM ethylene-diamine-tetra-acetic acid disodium salt (Na2EDTA) at 50° C. for overnight. Results are reported as either micrograms of GAG per milliliter or percent of total GAG released into culture medium.

[4] = test system: injured cartilage explants; format: cell-based
Excerpt: (§5) The device comprises a vertical rail that guides a sliding weight from 0.1 kg to 3 kg directly onto a force transducer which is situated at the bottom of the device. A sphere-shaped 2 mm indenter resting on a specimen is located at the bottom of the vertical rail. The indenter is held by a stop screw. The specimen is rigidly attached to a tissue holder underneath the indenter, to avoid side movements, the specimen is rigidly attached to the tissue holder. In this manner, the force transducer transduces a force indirectly onto the specimen. Adjusting the weight of a mass and height from which the mass drops varies the magnitude of the intended impact. For example, a weight mass (e.g., […]) held by a weight holder can be released from a height of e.g., 36 cm and dropped onto the force transducer.

[5] = test system: PG release, arthritic joint tissues; details: 10^−5 moles/liter or 10^−7 moles/liter; cited from earlier work
chondrocytes = format: cell-based
Excerpt: as §1, §2, §3, §4
The LDH activity was determined colorimetrically in an enzymatic test based on the conversion of lactic acid to pyruvate in the presence of chromagenic substrate tetrazolium salt INT that was reduced to formazan.

[6] = test system: injured cartilage explants, GAG release; assay: drop tower design model: GAG release; format: cell-based, bovine
Excerpt: as §5
Samples for compound evaluation were tested using either of two different methods to induce inflammatory conditions. One method utilized media conditioned from peripheral blood mononuclear cells (PBMCs) stimulated with LPS (“+LPS”) or non-inflammatory media without LPS (“−LPS”). Another method utilized the absence or presence of a cocktail of cytokines.
In the first method, bovine or human PBMCs were freshly prepared using Ficoll gradient by Lampire Biological Laboratories, Inc. PBMCs in RPMI w/10% FCS at delivery were spun down at 1500 rpm for twenty minutes and the cell pellet was washed twice with 1×PBS to wash off the residual Ficoll. The cells were then resuspended at a density of 1×10^6/ml in RPMI supplemented with 10% FCS, 1× Antibiotics-Antimycotics. The suspension was divided into two aliquots. One aliquot was stimulated with 10 μg/ml of LPS and the other was not stimulated. Both aliquots were then incubated at 37° C., 5% CO2 for twenty-four to seventy-two hours. The conditioned media with or without LPS stimulation are collected, aliquoted, and stored in −80° C. for a maximum of three months. Each conditioned medium was assessed for levels of pro-inflammatory cytokines to ensure their secretion from PBMC. A representative cytokine, IL-6, was assayed by ELISA using a Human IL-6 Quantikine kit and it was shown that the LPS-stimulated medium had at least 10 ng/ml of IL-6, while IL-6 was undetectable in the unstimulated medium.
In the second method, the explants were cultured at 37° C., 5% CO2 either in stimulated or non-stimulated conditioned medium as described above or in defined medium containing DMEM supplemented with 1% FCS, 1× insulin-transferrin-sodium selenite media supplement and Antibiotics-Antimycotics in the presence or absence of a cocktail of cytokines containing 10 ng/ml of IL-1β, 100 ng/ml of TNFα and 5 ng/ml of IFN-γ. The compounds were solubilized in H2O, Ethanol or DMSO (10^−2 M) according to suppliers' instructions and further diluted with either conditioned medium stimulated with or without LPS to the required concentrations. DMSO concentrations in the culture media never exceeded 1%. This concentration of DMSO has no effect on cartilage proteoglycan metabolism in response to cytokines. The injured and noninjured cartilage explants were treated with compound-containing medium for three to five days. The specimens were first treated with compounds at desired concentrations at 37° C. for one hour and then incubated for three to five days in the absence or presence of the cocktail of cytokines. At the end of the incubation, media and cartilage samples were harvested and frozen for further analysis.
Glycosaminoglycan (GAG) levels in the culture media or cartilage were determined by measuring the amount of polyanionic material reacting with 1,9-dimethylmethylene blue (DME) as detected by absorbance at 525 nm, using shark chondroitin sulfate as a standard. The DME blue dye-binding solution was prepared by dissolving 16 mg of DME blue in a solution containing 0.304% glycine, 0.23% NaCl, 9.5 mM HCl, pH=3.0 with A525 equaling 0.31. […]

Madecassoside
PGE2 Inhibition [1]: No effect | NO Inhibition [2]: No effect | GAG Release [3]: No effect

O=C(O)c1cc(O)c2c(c1)C(=O)c1cccc(O)c1C2=O [Rhein, reference compound]
PGE2 synthesis ([1]; diacerein at 5.4 μM, rhein at 0.35 μM, 10 ng/ml IL-1β): no effect | cytotoxicity (LDH, words) [4]: tolerant | lowest concentration inhibiting proteoglycan degradation ([3]; 10 ng/ml IL-1β, five days): ≤ 0.035 µM

O=C(O)Cc1ccccc1Nc1c(Cl)cccc1Cl [diclofenac]
PG release from arthritic joint tissues [5]: significantly inhibited

COc1ccc2c(c1)c(CC(=O)O)c(C)n2C(=O)c1ccc(Cl)cc1 [indomethacin]
PG release from arthritic joint tissues [5]: significantly inhibited

Cc1ccc(C(=O)c2ccc(CC(=O)O)n2C)cc1 [Tolmetin, reference compound]
NO Inhibition [2]: No effect | GAG Release [3]: No effect

CC(C(=O)O)c1ccc(C(=O)c2ccccc2)s1 (stereo not shown) [Tiaprofenic Acid, reference compound]
GAG Release [3]: No effect

CC1(C)O[C@@H]2[C@@H](CO[C@@]3(COS(N)(=O)=O)OC(C)(C)O[C@@H]23)O1 [Topramax, reference compound]
PGE2 Inhibition [1]: No effect | NO Inhibition [2]: No effect | GAG Release [3]: No effect

CO[C@H]1C[C@@H]2CC[C@@H](C)[C@@](O)(O2)C(=O)C(=O)N2CCCC[C@H]2C(=O)O[C@H]([C@H](C)C[C@@H]2CC[C@@H](O)[C@H](OC)C2)CC(=O)[C@H](C)/C=C(\C)[C@@H](O)[C@@H](OC)C(=O)[C@H](C)C[C@H](C)/C=C/C=C/C=C/1C [Rapamycin, reference compound]
cytotoxicity (LDH, words) [4]: little cytotoxicity | cytotoxicity to chondrocytes (LDH, words) (chondrocytes): little toxicity | inhibition at 0.01 µM ([6]; Bos taurus, at 0.01 μM): 84%

CN1C(C(=O)Nc2ccccn2)=C(O)c2ccccc2S1(=O)=O [Piroxicam, reference compound]
GAG, inhibition of degradation/release ([6]; injured cartilage explants, inflammatory conditions): No effect | GAG Release [3]: No effect
